Experimental data as given in patent US20260042755A1, “GPR6 INVERSE AGONISTS” (MapLight Therapeutics, Inc., priority 2022, published 2026).

What was measured:
GPR3 = biological target: T1, GPR3 (Homo sapiens, UniProt P46089); experiment: GPR3 antagonist functional cAMP assay (LANCE Ultra cAMP TR-FRET, CHO cells stably expressing GPR3); format: cell-based; conditions: CHO cells stably expressing GPR3, cAMP assay (Example 24)
T1 construct: expressed in transfected cells; host or cells: CHO cells
Summary of the method: (§1)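 Stable CHO-GPR6 or CHO-GPR3 cells (10,000/well) in Krebs-Ringer buffer with 0.1% BSA and 150 μM Ro 20-1724 were exposed to compounds for 45 min at 37° C (0.1% DMSO). cAMP read by LANCE Ultra TR-FRET; IC50 from 4-parameter fit normalized to DMSO and reference compounds.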

GPR6 = biological target: T2, GPR6 (Homo sapiens, UniProt P46095); experiment: GPR6 antagonist functional cAMP assay (LANCE Ultra cAMP TR-FRET, CHO cells stably expressing GPR6); format: cell-based; conditions: CHO cells stably expressing GPR6, cAMP assay (Example 24)
T2 construct: expressed in transfected cells; host or cells: CHO cells
T2 sequence (P46095 whole entry): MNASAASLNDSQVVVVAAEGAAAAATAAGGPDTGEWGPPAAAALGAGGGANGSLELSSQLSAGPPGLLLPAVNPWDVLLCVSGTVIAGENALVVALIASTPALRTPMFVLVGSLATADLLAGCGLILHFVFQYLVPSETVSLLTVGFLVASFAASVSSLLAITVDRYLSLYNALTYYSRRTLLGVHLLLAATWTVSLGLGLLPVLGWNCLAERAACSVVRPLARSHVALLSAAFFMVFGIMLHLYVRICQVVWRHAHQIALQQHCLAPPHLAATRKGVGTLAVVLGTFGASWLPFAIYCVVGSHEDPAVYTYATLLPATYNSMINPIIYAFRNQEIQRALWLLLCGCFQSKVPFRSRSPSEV
Summary of the method: as §1

T1 sequence (P46089 whole entry, species assumed): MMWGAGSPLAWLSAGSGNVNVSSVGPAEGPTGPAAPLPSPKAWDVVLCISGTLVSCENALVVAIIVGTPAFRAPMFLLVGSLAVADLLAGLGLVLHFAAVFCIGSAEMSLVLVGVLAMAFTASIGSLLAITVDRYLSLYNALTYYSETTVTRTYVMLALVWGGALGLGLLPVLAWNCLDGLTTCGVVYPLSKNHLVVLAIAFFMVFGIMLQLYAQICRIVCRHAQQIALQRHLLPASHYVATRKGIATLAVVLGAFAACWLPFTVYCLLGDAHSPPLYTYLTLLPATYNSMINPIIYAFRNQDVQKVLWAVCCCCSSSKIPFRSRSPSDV

Row | SMILES | IC50 (GPR3) | IC50 (GPR6)
1 | COc1cncc(-c2nc3c(nc2N2CCC(Oc4ccc(F)cc4F)CC2)CCN(C(C)=O)C3)n1 [Compound 87, 1-{2-[4-(2,4-difluorophenoxy)piperidin-1-yl]-3-(6-methoxypyrazin-2-yl)-5H,6H,7H,8H-pyrido[3,4-b]pyrazin-6-yl}ethan-1-one] | 1 to 30 µM | 0.1 to 1 µM
2 | CC(=O)N1CCc2nc(N3CCC(Oc4ccc(F)cc4F)CC3)c(-c3cnn(CCO)c3)nc2C1 [Compound 88, 1-{2-[4-(2,4-difluorophenoxy)piperidin-1-yl]-3-[1-(2-hydroxyethyl)-1H-pyrazol-4-yl]-5H,6H,7H,8H-pyrido[3,4-b]pyrazin-6-yl}ethan-1-one] | 1 to 30 µM | 1 to 30 µM
3 | CC(=O)N1CCc2nc(N3CCC(Oc4ccc(F)cc4F)CC3)c(-c3cnc4n3CCN(C)C4)nc2C1 [Compound 90, 1-(2-(4-(2,4-difluorophenoxy)piperidin-1-yl)-3-(7-methyl-5,6,7,8-tetrahydroimidazo[1,2-a]pyrazin-3-yl)-7,8-dihydropyrido[3,4-b]pyrazin-6(5H)-yl)ethan-1-one] | 1 to 30 µM | 1 to 30 µM
4 | CC(=O)N1CCC(c2nc3c(nc2N2CCC(Oc4ccc(F)cc4F)CC2)CCN(C(C)=O)C3)CC1 [Compound 91, 1-(4-(6-acetyl-2-(4-(2,4-difluorophenoxy)piperidin-1-yl)-5,6,7,8-tetrahydropyrido[3,4-b]pyrazin-3-yl)piperidin-1-yl)ethan-1-one] | 1 to 30 µM | 1 to 30 µM
5 | COc1cncc(-c2nc3cnccc3nc2N2CC3(CC(Oc4ccc(F)cc4F)C3)C2)n1 [Compound 92, 2-(6-(2,4-difluorophenoxy)-2-azaspiro[3.3]heptan-2-yl)-3-(6-methoxypyrazin-2-yl)pyrido[3,4-b]pyrazine] | ≥ 30 µM | 1 to 30 µM
6 | COc1cncc(-c2nc3cnc(CO)cc3nc2N2CCN(Cc3ccc(F)cc3F)CC2)n1 [Compound 95, (2-(4-(2,4-difluorobenzyl)piperazin-1-yl)-3-(6-methoxypyrazin-2-yl)pyrido[3,4-b]pyrazin-7-yl)methanol] | 1 to 30 µM | 1 to 30 µM
7 | Fc1ccc(OC2CCN(c3nc4ccncc4nc3-c3ncn[nH]3)CC2)c(F)c1 [Compound 96, 4-(2,4-difluorophenoxy)-1-[3-(1H-1,2,4-triazol-5-yl)pyrido[3,4-b]pyrazin-2-yl]piperidine] | 1 to 30 µM | 1 to 30 µM
8 | Fc1ccc(OC2CCN(c3nc4cnccc4nc3-c3cnn(C4CCCCO4)c3)CC2)c(F)c1 (centres unmarked) [Compound 97, 4-(2,4-difluorophenoxy)-1-{2-[1-(oxan-2-yl)-1H-pyrazol-4-yl]pyrido[3,4-b]pyrazin-3-yl}piperidine] | 1 to 30 µM | 1 to 30 µM
9 | CC(=O)N1CCc2nc(N3CCC(Oc4ccc(F)cc4F)CC3)c(-c3c(C)n[nH]c3C)nc2C1 [Compound 98, 1-{2-[4-(2,4-difluorophenoxy)piperidin-1-yl]-3-(3,5-dimethyl-1H-pyrazol-4-yl)-5H,6H,7H,8H-pyrido[3,4-b]pyrazin-6-yl}ethan-1-one] | ≥ 30 µM | ≥ 30 µM
10 | O=c1cccc(-c2nc3ccncc3nc2N2CCC(Oc3ccc(F)cc3F)CC2)[nH]1 [Compound 99, 6-{3-[4-(2,4-difluorophenoxy)piperidin-1-yl]pyrido[3,4-b]pyrazin-2-yl}-1,2-dihydropyridin-2-one] | 1 to 30 µM | 1 to 30 µM
11 | Fc1ccc(OC2CCN(c3nc4cnccc4nc3-c3cn[nH]c3)CC2)c(F)c1 [Compound 100, 4-(2,4-difluorophenoxy)-1-[2-(1H-pyrazol-4-yl)pyrido[3,4-b]pyrazin-3-yl]piperidine] | 1 to 30 µM | 0.1 to 1 µM
12 | CC(=O)N1CCc2nc(N3CCC(Oc4ccc(F)cc4F)CC3)c(-c3cccc(N4CCCC4)n3)nc2C1 [Compound 101, 1-{2-[4-(2,4-difluorophenoxy)piperidin-1-yl]-3-[6-(pyrrolidin-1-yl)pyridin-2-yl]-5H,6H,7H,8H-pyrido[3,4-b]pyrazin-6-yl}ethan-1-one] | 1 to 30 µM | 1 to 30 µM
13 | COc1cccc(-c2nc3cnccc3nc2N2CCC(Oc3ccc(F)cc3F)CC2)n1 [Compound 102, 2-{2-[4-(2,4-difluorophenoxy)piperidin-1-yl]pyrido[3,4-b]pyrazin-3-yl}-6-methoxypyridine] | 1 to 30 µM | 0.1 to 1 µM
14 | CC(=O)N1CCc2nc(N3CCC(Oc4ccc(F)cc4F)CC3)c(-c3cccc(NC(C)C)n3)nc2C1 [Compound 103, 1-{2-[4-(2,4-difluorophenoxy)piperidin-1-yl]-3-{6-[(propan-2-yl)amino]pyridin-2-yl}-5H,6H,7H,8H-pyrido [3,4-b]pyrazin-6-yl}ethan-1-one] | ≥ 30 µM | 1 to 30 µM
15 | COc1cccc(-c2nc3cnccc3nc2N2CC3(CC(Oc4ccc(F)cc4F)C3)C2)n1 [Compound 104, 6-(2,4-difluorophenoxy)-2-[3-(6-methoxypyridin-2-yl)pyrido[3,4-b]pyrazin-2-yl]-2-azaspiro[3.3]heptane] | 1 to 30 µM | 1 to 30 µM
16 | CC(=O)N1CCc2nc(N3CCC(Oc4ccc(F)cc4F)CC3)c(-c3ccc(F)c(=O)[nH]3)nc2C1 [Compound 105, 6-{6-acetyl-2-[4-(2,4-difluorophenoxy)piperidin-1-yl]-5H,6H,7H,8H-pyrido[3,4-b]pyrazin-3-yl}-3-fluoro-1,2-dihydropyridin-2-one] | 1 to 30 µM | 1 to 30 µM
17 | CC(=O)N1CCc2nc(N3CCC(Oc4ccc(F)cc4F)CC3)c(-c3cnn4c3CN(C(C)=O)CC4)nc2C1 [Compound 107, 1-(3-{6-acetyl-2-[4-(2,4-difluorophenoxy)piperidin-1-yl]-5H,6H,7H,8H-pyrido[3,4-b]pyrazin-3-yl}-4H,5H,6H,7H-pyrazolo[1,5-a]pyrazin-5-yl)ethan-1-one] | 1 to 30 µM | 1 to 30 µM
18 | CC(=O)N1CCc2nc(N3CCC(Oc4ccc(F)cc4F)CC3)c(-c3cnn4c3CNCC4)nc2C1 [Compound 108, 1-{2-[4-(2,4-difluorophenoxy)piperidin-1-yl]-3-{4H,5H,6H,7H-pyrazolo[1,5-a]pyrazin-3-yl}-5H,6H,7H,8H-pyrido[3,4-b]pyrazin-6-yl}ethan-1-one] | 1 to 30 µM | 1 to 30 µM
19 | CC(=O)N1CCc2nc(N3CCC(Oc4ccc(F)cc4F)CC3)c(-c3cnn4c3CN(C)CC4)nc2C1 [Compound 110, 1-{2-[4-(2,4-difluorophenoxy)piperidin-1-yl]-3-{5-methyl-4H,5H,6H,7H-pyrazolo[1,5-a]pyrazin-3-yl}-5H,6H,7H,8H-pyrido[3,4-b]pyrazin-6-yl}ethan-1-one] | 1 to 30 µM | 1 to 30 µM
20 | COc1nccc(-c2nc3c(nc2N2CCC(Oc4ccc(F)cc4F)CC2)CCN(C(C)=O)C3)n1 [Compound 111, 1-{2-[4-(2,4-difluorophenoxy)piperidin-1-yl]-3-(2-methoxypyrimidin-4-yl)-5H,6H,7H,8H-pyrido[3,4-b]pyrazin-6-yl}ethan-1-one] | 0.1 to 1 µM | 0.1 to 1 µM
21 | COc1ncccc1-c1nc2c(nc1N1CCC(Oc3ccc(F)cc3F)CC1)CCN(C(C)=O)C2 [Compound 112, 1-{2-[4-(2,4-difluorophenoxy)piperidin-1-yl]-3-(2-methoxypyridin-3-yl)-5H,6H,7H,8H-pyrido[3,4-b]pyrazin-6-yl}ethan-1-one] | 1 to 30 µM | 1 to 30 µM
22 | CC(=O)N1CCc2nc(N3CCC(Oc4ccc(F)cc4F)CC3)c(-c3cccn(C)c3=O)nc2C1 [Compound 113, 3-{6-acetyl-2-[4-(2,4-difluorophenoxy)piperidin-1-yl]-5H,6H,7H,8H-pyrido[3,4-b]pyrazin-3-yl}-1-methyl-1,2-dihydropyridin-2-one] | ≥ 30 µM | 1 to 30 µM
23 | CC(=O)N1CCc2nc(-c3cn[nH]c3)c(N3CCC(Oc4ccc(F)cc4F)CC3)nc2C1 [Compound 115, 1-{3-[4-(2,4-difluorophenoxy)piperidin-1-yl]-2-(1H-pyrazol-4-yl)-5H,6H,7H,8H-pyrido[3,4-b]pyrazin-6-yl}ethan-1-one] | 1 to 30 µM | 0.1 to 1 µM
24 | CC(=O)N1CCc2nc(N3CCC(Oc4ccc(F)cc4F)CC3)c(-c3c[nH]c(C)n3)nc2C1 [Compound 116, 1-{2-[4-(2,4-difluorophenoxy)piperidin-1-yl]-3-(2-methyl-1H-imidazol-4-yl)-5H,6H,7H,8H-pyrido[3,4-b]pyrazin-6-yl}ethan-1-one] | 1 to 30 µM | 0.1 to 1 µM
25 | CNc1cccc(-c2nc3c(nc2N2CCC(Oc4ccc(F)cc4F)CC2)CCN(C(C)=O)C3)n1 [Compound 117, 1-{2-[4-(2,4-difluorophenoxy)piperidin-1-yl]-3-[6-(methylamino)pyridin-2-yl]-5H,6H,7H,8H-pyrido[3,4-b]pyrazin-6-yl}ethan-1-one] | 1 to 30 µM | 0.1 to 1 µM
26 | N#CCN1CCc2nc(N3CCC(Oc4ccc(F)cc4F)CC3)c(-c3cnn(C4CCCCO4)c3)nc2C1 (centres unmarked) [Compound 118, 2-{2-[4-(2,4-difluorophenoxy)piperidin-1-yl]-3-[1-(oxan-2-yl)-1H-pyrazol-4-yl]-5H,6H,7H,8H-pyrido[3,4-b]pyrazin-6-yl}acetonitrile] | 1 to 30 µM | 1 to 30 µM
27 | N#CCN1CCc2nc(N3CCC(Oc4ccc(F)cc4F)CC3)c(-c3cn[nH]c3)nc2C1 [Compound 119, 2-{2-[4-(2,4-difluorophenoxy)piperidin-1-yl]-3-(1H-pyrazol-4-yl)-5H,6H,7H,8H-pyrido[3,4-b]pyrazin-6-yl}acetonitrile] | 1 to 30 µM | 0.1 to 1 µM
28 | O=C(N1CCOCC1)N1CCc2nc(N3CCC(Oc4ccc(F)cc4F)CC3)c(-c3cn[nH]c3)nc2C1 [Compound 120, 4-{2-[4-(2,4-difluorophenoxy)piperidin-1-yl]-3-(1H-pyrazol-4-yl)-5H,6H,7H,8H-pyrido[3,4-b]pyrazine-6-carbonyl}morpholine] | 1 to 30 µM | 0.1 to 1 µM
